# Test results from US10813888B2, “Formulations of cysteamine and cysteamine derivatives” (RECORDATI INDUSTRIA CHIMICA E FARMACEUTICA SPA, priority 2016, dated 2020).
# Assay: In vitro dissolution test, USP Apparatus II at pH 1.2 for 1 hour
# Assay type: physicochemical
# Description: The in vitro dissolution tests were conducted in an USP Apparatus II at pH 1.2 for 1 hour. The cysteamine bitartrate raw material was completely dissolved in 10 minutes.
compound,measurement,value
"NCCS.O=C(O)C(O)C(O)C(=O)O (stereo not shown) [cysteamine bitartrate raw material, cysteamine bitartrate]",time to complete dissolution,10 min
